Results: patent US10358454B2, “Marinopyrrole derivatives and methods of making and using same” (H. LEE MOFFITT CANCER CENTER AND RESEARCH INSTITUTE, INC., priority 2014, dated 2019)
Like-named read-outs stand apart in the source and are kept apart here.

Legend:
MDA-MB-468 cells [1] = assay: Soft agar assay (anchorage-independent growth); type: cell-based, human; details: 21 days, compared with 1
MDA-MB-468 cells [2] = assay: Western blots of MDA-MB-468 cells treated with 1 and I-2 (Bcl-2 family proteins, Caspase 3 and PARP cleavage); type: cell-based, human
A-549 xenografts = A-549 xenografts in nude mice; type: in vivo; details: 4 mpk/day for 14 days
[3] = system: cultured human cancer cells; assay: Induction of apoptosis in cultured human cancer cells; type: cell-based; details: intact cell studies
[4] = system: Bim/Mcl-1 and Bim/Bcl-xL in MDA-MB-468 cancer cells; assay: Co-immunoprecipitation and densitometry of Bim/Mcl-1 and Bim/Bcl-xL in treated cells; type: cell-based, human; details: compared with 1
[5] = system: A-549 human lung cancer cells; assay: MTT assay (anchorage-dependent proliferation); type: cell-based; details: 48 hours, compared with 1
Mcl-1/Bim = Mcl-1/Bim (Homo sapiens, UniProt Q07820); assay: Mcl-1/Bim ELISA (GST-Mcl-1 binding to biotinylated Bim BH3 peptide)
Chain of Mcl-1/Bim (Q07820 whole entry): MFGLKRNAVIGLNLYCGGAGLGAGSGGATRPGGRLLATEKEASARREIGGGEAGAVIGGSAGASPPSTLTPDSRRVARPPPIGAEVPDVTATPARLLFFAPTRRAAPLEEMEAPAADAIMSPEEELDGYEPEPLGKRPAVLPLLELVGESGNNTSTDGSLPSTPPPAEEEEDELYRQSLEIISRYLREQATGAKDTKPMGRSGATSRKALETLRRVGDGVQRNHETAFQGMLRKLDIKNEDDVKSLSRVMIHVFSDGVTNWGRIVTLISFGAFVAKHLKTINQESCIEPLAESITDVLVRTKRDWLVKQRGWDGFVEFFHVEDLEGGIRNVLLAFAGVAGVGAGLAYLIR
Method in brief: (§1)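 Compounds premixed 15 min with 10 nM GST-Mcl-1 or GST-Bcl-xL in PBS, then 2 h on wells coated with 40 nM biotinylated Bim BH3 peptide (streptavidin capture). Bound protein detected with HRP anti-GST (1 h) and TMB; absorbance at 450 nm after HCl stop.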

Bcl-xL/Bim = Bcl-xL/Bim (Homo sapiens, UniProt Q07817); assay: Bcl-xL/Bim ELISA (GST-Bcl-xL binding to biotinylated Bim BH3 peptide)
Chain of Bcl-xL/Bim (Q07817 whole entry): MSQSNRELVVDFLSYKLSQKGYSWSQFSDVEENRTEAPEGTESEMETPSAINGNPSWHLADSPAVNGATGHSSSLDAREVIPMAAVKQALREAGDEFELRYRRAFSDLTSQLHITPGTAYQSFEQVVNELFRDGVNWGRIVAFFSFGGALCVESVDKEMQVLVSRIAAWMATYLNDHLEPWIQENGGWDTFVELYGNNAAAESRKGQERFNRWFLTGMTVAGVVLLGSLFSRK
Method in brief: as §1

[6] = system: A-549 human lung cancer cells; assay: Soft agar assay (anchorage-independent growth); type: cell-based; details: 21 days, compared with 1
[7] = Stability in 1 M NaOH at room temperature, HPLC analysis; details: after 48 hours
MDA-MB-468 cells [8] = assay: MTT assay (anchorage-dependent proliferation); type: cell-based, human; details: 48 hours, compared with 1

activity against Mcl-1/Bim in words (Mcl-1/Bim): more potent than 1
IC50 (Mcl-1/Bim; Table 2-B, n ≥ 3, read-out: Mcl-1/Bim IC50 (average ± SEM)): 3.9 ± 0.2 µM
IC50 (Mcl-1/Bim; Table 3-A structure I, Mcl-1 at 10 nM, n ≥ 3, read-out: Mcl-1-Bim IC50 (average ± SEM)): 3.9 ± 0.2 µM
selectivity profile Mcl-1 vs Bcl-xL in words (Mcl-1/Bim; from Mcl-1/Bim and Bcl-xL/Bim ELISA): dual Mcl-1 and Bcl-XL antagonists
IC50 (Mcl-1/Bim; read-out: IC50 to inhibit the binding of Mcl-1 to Bim): 3.7 µM
activity against Bcl-xL/Bim in words (Bcl-xL/Bim): more potent than 1
IC50 (Bcl-xL/Bim; Table 2-B, n ≥ 3 unless specified, read-out: Bcl-xL/Bim IC50 (average ± SEM)): 5.6 ± 0.5 µM
IC50 (Bcl-xL/Bim; Table 3-A structure I, Bcl-xL at 10 nM, n ≥ 3, read-out: Bcl-xL-Bim IC50 (average ± SEM)): 5.6 ± 0.5 µM
remained intact [7]: 81%
SMILES: C#Cc1ccc(C(=O)c2[nH]c(Cl)c(Cl)c2-n2c(C(=O)c3ccc(C#C)cc3O)cc(Cl)c2Cl)c(O)c1 [Compound 1-3, (4,4′,5,5′-Tetrachloro-1′H-1,3′-bipyrrole-2,2′-diyl)bis((4-ethynyl-2-hydroxyphenyl)methanone)]
inhibiting anchorage-independent proliferation (soft agar) (MDA-MB-468 cells [1]): more potent than 1
effect on Bcl-2 and Bax levels (MDA-MB-468 cells [2]): little effects
effect on Bim level (MDA-MB-468 cells [2]): slightly decreased
decreasing levels of Mcl-1 and Bcl-xL and increasing levels of Bak and Bad (MDA-MB-468 cells [2]; compared with 1): more potent than 1
inducing apoptosis (Caspase 3 and PARP cleavage) (MDA-MB-468 cells [2]; compared with 1): more potent than 1
effect on the body weights of the mice (A-549 xenografts): little effect
increase of tumor volumes from day 1 to day 14 (A-549 xenografts; vehicle-treated mice 160±10%): 45±30%
induction of apoptosis [3]: induced apoptosis
inhibition of binding of Mcl-1 and Bcl-xL to Bim in cells [4]: more potent than 1
inhibiting anchorage-dependent proliferation (MTT) [5]: more potent than 1
inhibiting anchorage-independent proliferation (soft agar) [6]: more potent than 1
inhibiting anchorage-dependent proliferation (MTT) (MDA-MB-468 cells [8]): more potent than 1
